# Results reported in ChEMBL document CHEMBL2062379, “Cleavage mechanism and anti-tumor activity of 3,6-epidioxy-1,10-bisaboladiene isolated from edible wild plants” (Bioorg Med Chem, 2012).
# Calls of active or inactive are those of the source. The calls are words filed in the database; no cut-off is given here.
# What was measured:
# [1] = Growth inhibition of human HBC4 cells; assay type: functional
# DU-145 = test: Growth inhibition of human DU145 cells; assay type: functional
# MCF7 = test: Growth inhibition of human MCF7 cells; assay type: functional
# Saccharomyces cerevisiae [2] = test: Growth restoration activity in cdc2-1 rad9-deficient Saccharomyces cerevisiae assessed as growth zone at 4 ug/disc incubated at 37 degC for 6 hrs and 28 degC for 2 days; assay type: functional
# [3] = biological target: MAP kinase p38 (Homo sapiens) (UniProt O15264+Q15759+Q16539+P53778); test: Induction of p38 MAPK phosphorylation at T180/Y182 in human HL60 cells at 5 uM after 6 hrs by Western blot analysis; assay type: cell-based; details: HL-60
# MDA-MB-231 = test: Growth inhibition of human MDA-MB-231 cells; assay type: functional
# HL-60 [4] = test: Induction of apoptosis in human HL60 cells assessed as DNA fragmentation after 24 hrs by Hoechst staining-based microscopic analysis preincubated with 10 uM ERK inhibitor PD98059; assay type: functional, cell-based
# HL-60 [5] = test: Induction of apoptosis in human HL60 cells assessed as condensed and fragmented nuclie at 10.6 uM after 18 hrs by Hoechst staining-based microscopic analysis relative to control; assay type: functional, cell-based
# HL-60 [6] = test: Cytotoxicity against human HL60 cells assessed as cell viability at 2 uM by MTT assay in presence of 20 uM Fe2(SO4)3; assay type: functional
# DMS-273 = test: Growth inhibition of human DMS273 cells; assay type: functional
# [7] = Growth inhibition of human RXF631L cells; assay type: functional; details: RXF 631
# NCI-H23 = test: Growth inhibition of human NCI-H23 cells; assay type: functional
# SK-OV-3 = test: Growth inhibition of human SKOV3 cells; assay type: functional
# HL-60 [8] = test: Induction of apoptosis in human HL60 cells assessed as DNA fragmentation after 24 hrs by Hoechst staining-based microscopic analysis in presence of 50 uM superoxide scavenger allopurinol; assay type: functional, cell-based
# Saccharomyces cerevisiae [9] = test: Growth restoration activity in cdc2-1 rad9-deficient Saccharomyces cerevisiae assessed as growth zone at 1 ug/disc incubated at 37 degC for 6 hrs and 28 degC for 2 days; assay type: functional
# U-251 = test: Growth inhibition of human U251 cells; assay type: functional
# LNCaP = test: Cytotoxicity against human LNCAP cells after 4 days by MTT assay; assay type: functional, cell-based; details: 96 h
# SF-295 = test: Growth inhibition of human SF295 cells; assay type: functional
# K562 = test: Cytotoxicity against human K562 cells after 4 days by MTT assay; assay type: functional, cell-based; details: K562, 96 h
# HCT-15 = test: Growth inhibition of human HCT15 cells; assay type: functional
# Saccharomyces cerevisiae [10] = test: Growth restoration activity in cdc2-1 rad9-deficient Saccharomyces cerevisiae assessed as growth zone at 0.5 ug/disc incubated at 37 degC for 6 hrs and 28 degC for 2 days; assay type: functional
# A549 = test: Growth inhibition of human A549 cells; assay type: functional
# NCI-H226 = test: Growth inhibition of human NCI-H226 cells; assay type: functional
# PC-3 = test: Growth inhibition of human PC3 cells; assay type: functional
# HL-60 [11] = test: Cytotoxicity against human HL60 cells after 48 hrs by MTT assay in absence of DFOM; assay type: functional, cell-based; details: HL-60, 48 h
# MKN-28 = test: Growth inhibition of human MKN28 cells; assay type: functional
# KM12 = test: Growth inhibition of human KM12 cells; assay type: functional
# HL-60 [12] = test: Induction of ROS generation in human HL60 cells at 10 uM measured immediately by spectrofluorometric analysis; assay type: functional, cell-based
# [13] = Induction of ROS generation at 10 uM after 3 hrs by spectrofluorometric analysis in presence of FeSO4; assay type: physicochemical
# [14] = Prodrug conversion in buffer at pH 8 assessed as (1)- 7-(1,5-Dimethyl-hex-4-enyl)-4-methyl-3,8-dioxa-tricyclo[5.1.0.0*2,4*]octane formation after 24 hrs by HPLC analysis in presence of 25 mM FeSO4; assay type: physicochemical; details: pH 8, 24 h
# MKN-7 = test: Growth inhibition of human MKN7 cells; assay type: functional
# OVCAR-8 = test: Growth inhibition of human OVCAR8 cells; assay type: functional
# HL-60 [15] = test: Induction of apoptosis in human HL60 cells assessed as caspase 3/7 activation after 1 to 6 hrs by spectrophotometric analysis; assay type: functional, cell-based
# HL-60 [16] = test: Induction of apoptosis in human HL60 cells assessed as caspase 8 activation after 1 to 6 hrs by spectrophotometric analysis; assay type: functional, cell-based
# HL-60 [17] = test: Induction of apoptosis in human HL60 cells assessed as caspase 9 activation at 20 uM after 3 hrs by spectrophotometric analysis; assay type: functional, cell-based
# [18] = Growth inhibition of human BSY1 cells; assay type: functional; details: BSY-1
# SNB-78 = test: Growth inhibition of human SNB78 cells; assay type: functional
# HL-60 [19] = test: Induction of apoptosis in human HL60 cells assessed as DNA fragmentation after 24 hrs by Hoechst staining-based microscopic analysis preincubated with 5 uM JNK inhibitor SP600125; assay type: functional, cell-based
# HL-60 [20] = test: Induction of apoptosis in human HL60 cells assessed as DNA fragmentation after 24 hrs by Hoechst staining-based microscopic analysis preincubated with 20 uM p38 MAPK inhibitor SB203580; assay type: functional, cell-based
# HT-29 = test: Growth inhibition of human HT-29 cells; assay type: functional
# ACHN = test: Growth inhibition of human ACHN cells; assay type: functional
# DMS-114 = test: Growth inhibition of human DMS114 cells; assay type: functional
# HL-60 [21] = test: Induction of ROS generation in human HL60 cells at 10 uM after 3 hrs by spectrofluorometric analysis; assay type: functional, cell-based
# HCT-116 = test: Growth inhibition of human HCT116 cells; assay type: functional
# NCI-H522 = test: Growth inhibition of human NCI-H522 cells; assay type: functional
# NCI-H460 = test: Growth inhibition of human NCI-H460 cells; assay type: functional
# LOX IMVI = test: Antitumor activity against human LOXIMVI cells xenografted in nude mouse assessed as decrease in tumor volume at 25 mg/kg, iv administered on day 1, 6 and 11 post tumor inoculation measured on day 21; assay type: functional; parameters: scale not given: the % may be the effect or the level left
# HL-60 [22] = test: Induction of apoptosis in human HL60 cells assessed as DNA fragmentation after 24 hrs by Hoechst staining-based microscopic analysis; assay type: functional, cell-based
# HL-60 [23] = test: Induction of apoptosis in human HL60 cells assessed as DNA fragmentation after 24 hrs by Hoechst staining-based microscopic analysis in presence of 10 mM hydrogen peroxide scavenger NAC; assay type: functional, cell-based
# Saccharomyces cerevisiae [24] = test: Growth restoration activity in cdc2-1 rad9-deficient Saccharomyces cerevisiae assessed as growth zone at 2 ug/disc incubated at 37 degC for 6 hrs and 28 degC for 2 days; assay type: functional
# HL-60 [25] = test: Cytotoxicity against human HL60 cells assessed as cell viability at 2 uM by MTT assay in presence of 20 uM FeSO4; assay type: functional
# HL-60 [26] = test: Cytotoxicity against human HL60 cells after 48 hrs by MTT assay; assay type: functional, cell-based; details: HL-60, 48 h
# [27] = Growth inhibition of human HBC5 cells; assay type: functional
# St-4 = test: Growth inhibition of human St-4 cells; assay type: functional
# HL-60 [28] = test: Ratio of IC50 for human HL60 cells in presence of DFOM to IC50 for human HL60 cells in absence of DFOM; assay type: functional
compound,measurement,setting,value
CC(C)=CCCC(C)C12C=CC(C)(CC1)OO2 (stereo not given),GI50,[1],1120 nM
same,GI50,DU-145,2630 nM
same,GI50,MCF7,2090 nM
same,Activity,Saccharomyces cerevisiae [2],29 mm
same,Activity,[3],Active
same,GI50,MDA-MB-231,11700 nM
same,Activity,HL-60 [4],Active
same,Activity,HL-60 [5],Active
same,Activity,HL-60 [6],34.9%
same,GI50,DMS-273,1150 nM
same,GI50,[7],2510 nM
same,GI50,NCI-H23,1700 nM
same,GI50,SK-OV-3,7940 nM
same,Activity,HL-60 [8],Active
same,Activity,Saccharomyces cerevisiae [9],19 mm
same,GI50,U-251,5010 nM
same,IC50,LNCaP,23400 nM
same,GI50,SF-295,1660 nM
same,IC50,K562,9100 nM
same,GI50,HCT-15,4900 nM
same,Activity,Saccharomyces cerevisiae [10],0 mm
same,GI50,A549,1550 nM
same,GI50,NCI-H226,3890 nM
same,GI50,PC-3,1820 nM
same,IC50,HL-60 [11],3700 nM
same,GI50,MKN-28,8320 nM
same,GI50,KM12,1860 nM
same,Activity,HL-60 [12],Active
same,Activity,[13],Active
same,Drug metabolism,[14],Active
same,GI50,MKN-7,3630 nM
same,GI50,OVCAR-8,12000 nM
same,Activity,HL-60 [15],Dose-dependent effect
same,Activity,HL-60 [16],Dose-dependent effect
same,Activity,HL-60 [17],Active
same,GI50,[18],2950 nM
same,GI50,SNB-78,1550 nM
same,Activity,HL-60 [19],Active
same,Activity,HL-60 [20],inactive
same,GI50,HT-29,178 nM
same,GI50,ACHN,1230 nM
same,GI50,DMS-114,10700 nM
same,Activity,HL-60 [21],inactive
same,GI50,HCT-116,3720 nM
same,GI50,NCI-H522,200 nM
same,GI50,NCI-H460,832 nM
same,Activity,LOX IMVI,26.9%
same,Activity,HL-60 [22],Dose-dependent effect
same,Activity,HL-60 [23],Active
same,Activity,Saccharomyces cerevisiae [24],24.1 mm
same,Activity,HL-60 [25],33.2%
same,IC50,HL-60 [26],3400 nM
same,GI50,[27],191 nM
same,GI50,St-4,5370 nM
same,Ratio IC50,HL-60 [28],10
